Source: ChEMBL document CHEMBL1157269, “Antineoplastic agents. 551. Isolation and structures of bauhiniastatins 1-4 from Bauhinia purpurea” (2006)
≈ marks a conversion by molar mass, not a printed value.

Assays:
Type in all cases: functional
P388 = assay: Growth inhibition of mouse P388 cells
KM-20L2 = assay: Growth inhibition of human KM20L2 cells
MCF7 = assay: Growth inhibition of human MCF7 cells
SF-268 = assay: Growth inhibition of human SF268 cells
NCI-H460 = assay: Growth inhibition of human NCI-H460 cells
BXPC-3 = assay: Growth inhibition of human BXPC3 cells
DU-145 = assay: Growth inhibition of human DU145 cells

COc1c(C)c(=O)c2oc3cccc(O)c3ccc=2c1=O [BAUHINIASTATIN 1]
GI50 (P388): 0.65 µg/mL (≈ 2.29 µM) | GI50 (KM-20L2): > 10 µg/mL | GI50 (MCF7): 4.1 µg/mL (≈ 14.4 µM) | GI50 (SF-268): 2.4 µg/mL (≈ 8.44 µM) | GI50 (NCI-H460): 6.6 µg/mL (≈ 23.2 µM) | GI50 (BXPC-3): 7 µg/mL (≈ 24.6 µM) | GI50 (DU-145): > 10 µg/mL

COc1c(C)c(O)c2c(c1OC)C=Cc1c(O)cccc1O2 [BAUHINIASTATIN 2]
GI50 (P388): 23.2 µg/mL (≈ 77.3 µM) | GI50 (KM-20L2): > 10 µg/mL | GI50 (MCF7): 3.1 µg/mL (≈ 10.3 µM) | GI50 (SF-268): 3.2 µg/mL (≈ 10.7 µM) | GI50 (NCI-H460): 3.5 µg/mL (≈ 11.7 µM) | GI50 (BXPC-3): 3.8 µg/mL (≈ 12.7 µM) | GI50 (DU-145): 3.8 µg/mL (≈ 12.7 µM)

COc1cc2c(c(O)c1C)Oc1c(O)ccc(OC)c1C=C2 [BAUHINIASTATIN 3]
GI50 (P388): 15.7 µg/mL (≈ 52.3 µM) | GI50 (KM-20L2): > 10 µg/mL | GI50 (MCF7): 3.2 µg/mL (≈ 10.7 µM) | GI50 (SF-268): 5.8 µg/mL (≈ 19.3 µM) | GI50 (NCI-H460): 6.1 µg/mL (≈ 20.3 µM) | GI50 (BXPC-3): 6.6 µg/mL (≈ 22 µM) | GI50 (DU-145): 5.8 µg/mL (≈ 19.3 µM)

COc1c(C)c(O)cc2c1Oc1cccc(O)c1C=C2 [BAUHINIASTATIN 4]
GI50 (P388): 61.5 µg/mL (≈ 228 µM)

O=c1[nH]cc(F)c(=O)[nH]1 [FLUOROURACIL]
GI50 (P388): 0.073 µg/mL (≈ 0.561 µM)

COc1cc2c(c(O)c1C)Oc1cccc(O)c1C=C2 [PACHARIN]
GI50 (P388): 15.5 µg/mL (≈ 57.3 µM) | GI50 (KM-20L2): > 10 µg/mL | GI50 (MCF7): 2.3 µg/mL (≈ 8.51 µM) | GI50 (SF-268): 3.1 µg/mL (≈ 11.5 µM) | GI50 (NCI-H460): 4.2 µg/mL (≈ 15.5 µM) | GI50 (BXPC-3): 4.3 µg/mL (≈ 15.9 µM) | GI50 (DU-145): 3.3 µg/mL (≈ 12.2 µM)
